The record followed here is patent US20220175856A1, “UNRAVELING RECEPTOR-METABOLITE INTERACTIONS IN THE HUMAN MICROBIOME” (The Rockefeller University, priority 2019, published 2022).

One may read the EC50 as the midpoint of the concentration-response curve.

“Also recorded” adds a separate entry of the source. Read-outs that look alike come from different tables or passages of the source.

Test [1] has as its target GPR109B (Homo sapiens, UniProt P49019). The test is described as follows: cell-based. From the text:
(§1) Individual bacteria from the SIHUMI consortium were fermented under anaerobic conditions in 20 L culture vessels, along with a media control containing no bacteria (FIG. 1). After 10 days, the extracellular metabolites were extracted and the crude mixture was partitioned into metabolite-rich fractions using reversed phased flash chromatography. The pre-fractionation process simplifies each fraction, thereby improving the signal in the primary screen and facilitating the downstream isolation of bioactive compounds. The fraction library was screened for agonist activity against individual GPCRs using a luminescence-based β-arrestin recruitment assay.
(§2) Compound plates were shipped on dry ice to Eurofins DiscoverX and the gperMAX and orphanMAX panels were run on all 80 samples in singleton.

Test [2] deals with T1, urotensin 2 receptor (UTR2) (Homo sapiens, UniProt Q9UKP6).
T1 sequence (Q9UKP6 1-389): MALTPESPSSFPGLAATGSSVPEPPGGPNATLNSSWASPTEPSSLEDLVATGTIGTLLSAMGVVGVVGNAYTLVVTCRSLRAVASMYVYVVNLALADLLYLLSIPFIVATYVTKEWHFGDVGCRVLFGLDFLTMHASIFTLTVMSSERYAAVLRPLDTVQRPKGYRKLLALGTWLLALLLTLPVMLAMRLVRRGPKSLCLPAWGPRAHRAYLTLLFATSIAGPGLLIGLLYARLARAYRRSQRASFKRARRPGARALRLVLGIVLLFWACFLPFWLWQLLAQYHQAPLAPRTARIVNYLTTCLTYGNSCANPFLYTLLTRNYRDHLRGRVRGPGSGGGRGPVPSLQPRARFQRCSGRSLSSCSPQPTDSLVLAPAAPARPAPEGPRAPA
The test is described as follows: β-arrestin recruitment GPCR agonist assay (PathHunter), UTR2. In kind it is cell-based. To be noted: for agonist activity at UTR2: result in words. (Arrestin recruitment assays detect the binding of arrestin to an activated receptor.)

The target in test [3] is brain angiogenesis factor 1 (BAI1) (Homo sapiens, UniProt O14514). In words: β-arrestin recruitment GPCR agonist assay (PathHunter), BAI1. Type of test: cell-based.
brain angiogenesis factor 1 (BAI1), sequence (O14514 31-1584): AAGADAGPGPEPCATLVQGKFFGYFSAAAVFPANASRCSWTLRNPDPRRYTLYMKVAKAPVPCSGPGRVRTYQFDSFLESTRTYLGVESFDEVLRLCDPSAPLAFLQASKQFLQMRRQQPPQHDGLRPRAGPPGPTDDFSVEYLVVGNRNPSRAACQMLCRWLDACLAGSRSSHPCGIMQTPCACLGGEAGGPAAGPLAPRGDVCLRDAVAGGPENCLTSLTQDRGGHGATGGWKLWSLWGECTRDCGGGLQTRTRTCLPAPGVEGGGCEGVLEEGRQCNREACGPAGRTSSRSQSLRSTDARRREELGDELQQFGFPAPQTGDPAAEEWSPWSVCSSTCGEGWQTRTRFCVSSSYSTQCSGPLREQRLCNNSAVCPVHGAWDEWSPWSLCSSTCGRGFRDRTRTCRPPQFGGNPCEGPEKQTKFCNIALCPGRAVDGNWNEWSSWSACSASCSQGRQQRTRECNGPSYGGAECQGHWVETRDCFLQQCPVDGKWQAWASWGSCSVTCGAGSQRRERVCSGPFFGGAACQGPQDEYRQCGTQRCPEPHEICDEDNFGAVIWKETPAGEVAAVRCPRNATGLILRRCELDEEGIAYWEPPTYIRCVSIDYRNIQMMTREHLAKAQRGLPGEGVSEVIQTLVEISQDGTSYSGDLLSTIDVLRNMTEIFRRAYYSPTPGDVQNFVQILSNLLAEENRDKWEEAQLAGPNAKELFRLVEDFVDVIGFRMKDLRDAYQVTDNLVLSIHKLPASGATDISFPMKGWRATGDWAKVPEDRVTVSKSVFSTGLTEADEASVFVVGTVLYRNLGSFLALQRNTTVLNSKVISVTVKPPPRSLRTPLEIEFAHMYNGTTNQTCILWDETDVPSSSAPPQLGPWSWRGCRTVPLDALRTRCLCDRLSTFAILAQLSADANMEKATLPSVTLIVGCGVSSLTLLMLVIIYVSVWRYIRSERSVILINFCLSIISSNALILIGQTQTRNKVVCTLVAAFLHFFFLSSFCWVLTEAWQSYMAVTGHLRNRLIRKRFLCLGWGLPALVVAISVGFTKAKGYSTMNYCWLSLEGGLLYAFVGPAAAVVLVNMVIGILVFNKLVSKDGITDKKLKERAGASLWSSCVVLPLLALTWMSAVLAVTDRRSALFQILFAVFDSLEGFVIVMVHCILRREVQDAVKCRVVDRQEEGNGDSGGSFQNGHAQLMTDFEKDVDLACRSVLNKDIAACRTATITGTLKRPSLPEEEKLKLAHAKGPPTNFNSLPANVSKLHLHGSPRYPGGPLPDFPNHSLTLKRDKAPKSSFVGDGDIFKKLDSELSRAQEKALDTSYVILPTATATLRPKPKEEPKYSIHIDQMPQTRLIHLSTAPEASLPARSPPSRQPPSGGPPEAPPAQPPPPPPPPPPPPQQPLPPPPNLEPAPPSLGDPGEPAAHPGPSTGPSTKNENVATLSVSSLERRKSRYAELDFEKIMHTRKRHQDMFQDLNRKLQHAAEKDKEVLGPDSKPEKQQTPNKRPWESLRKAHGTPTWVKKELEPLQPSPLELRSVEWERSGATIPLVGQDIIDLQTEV
The target of test [4] is T2, NMU1R (neuromedin receptor 1) (Homo sapiens, UniProt Q9HB89).
T2 sequence (Q9HB89 1-426): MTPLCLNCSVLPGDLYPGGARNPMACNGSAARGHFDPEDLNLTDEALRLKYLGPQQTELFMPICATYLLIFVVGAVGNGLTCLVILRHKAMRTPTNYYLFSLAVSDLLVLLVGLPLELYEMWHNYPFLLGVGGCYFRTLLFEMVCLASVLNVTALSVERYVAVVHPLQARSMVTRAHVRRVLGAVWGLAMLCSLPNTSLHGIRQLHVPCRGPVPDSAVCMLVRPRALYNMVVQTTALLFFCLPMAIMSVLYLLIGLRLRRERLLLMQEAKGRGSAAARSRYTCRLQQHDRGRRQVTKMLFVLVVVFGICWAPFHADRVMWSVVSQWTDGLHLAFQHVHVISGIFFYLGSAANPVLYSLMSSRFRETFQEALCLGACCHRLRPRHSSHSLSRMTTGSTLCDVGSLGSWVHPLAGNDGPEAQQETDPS
In words: β-arrestin recruitment GPCR agonist assay (PathHunter), NMU1R. Type of test: cell-based. Particulars: for agonist activity at NMU1R: result in words.

The target in test [5] is T3, GPR151 (Homo sapiens, UniProt Q8TDV0).
T3 sequence (Q8TDV0 1-419): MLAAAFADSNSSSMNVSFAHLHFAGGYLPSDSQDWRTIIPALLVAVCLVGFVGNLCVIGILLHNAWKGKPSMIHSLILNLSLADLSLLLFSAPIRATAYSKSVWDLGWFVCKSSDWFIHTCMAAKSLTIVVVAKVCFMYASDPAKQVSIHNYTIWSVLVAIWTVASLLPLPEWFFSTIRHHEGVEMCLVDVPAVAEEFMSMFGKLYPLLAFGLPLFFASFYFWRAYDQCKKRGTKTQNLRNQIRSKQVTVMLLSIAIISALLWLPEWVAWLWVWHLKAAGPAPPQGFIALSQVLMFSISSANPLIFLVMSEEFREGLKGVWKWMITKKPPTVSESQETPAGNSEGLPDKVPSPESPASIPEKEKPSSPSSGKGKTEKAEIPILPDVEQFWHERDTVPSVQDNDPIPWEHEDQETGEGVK
The test is described as follows: β-arrestin recruitment GPCR agonist assay (PathHunter), GPR151. In kind it is cell-based. To be noted: Table 1, GPCR GPR151 (Q8TDV0).

The target in test [6] is HRH4 (Homo sapiens, UniProt Q9H3N8). In words: β-arrestin recruitment GPCR agonist assay (PathHunter), HRH4. Type of test: cell-based. Particulars: result in words.
HRH4, sequence (Q9H3N8 whole entry): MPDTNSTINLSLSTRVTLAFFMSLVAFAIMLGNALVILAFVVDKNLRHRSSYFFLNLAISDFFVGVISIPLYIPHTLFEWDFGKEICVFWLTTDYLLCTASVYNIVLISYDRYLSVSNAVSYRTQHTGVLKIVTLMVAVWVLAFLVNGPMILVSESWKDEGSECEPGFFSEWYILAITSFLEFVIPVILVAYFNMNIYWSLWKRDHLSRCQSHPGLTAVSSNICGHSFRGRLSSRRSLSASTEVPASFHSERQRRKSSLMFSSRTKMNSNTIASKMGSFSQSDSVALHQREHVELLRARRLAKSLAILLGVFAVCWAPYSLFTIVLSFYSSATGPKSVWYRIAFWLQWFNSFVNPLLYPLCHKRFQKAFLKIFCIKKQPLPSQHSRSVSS
For test [7], the system named is histamine receptor (HRH) family. In words: β-arrestin recruitment GPCR agonist assay (PathHunter), histamine receptor family. In kind it is cell-based, human. Particulars: synthetic polyamines; result in words.
Test [8] has as its system serotonin receptors (HTRs). In words: β-arrestin recruitment GPCR agonist assay (PathHunter), serotonin receptors. In kind it is cell-based, human. Particulars: result in words.
Test [9] has as its system DRD2. In words: β-arrestin recruitment GPCR agonist assay (PathHunter), DRD2. Type of test: cell-based, human. Particulars: synthetic standard; result in words.
Description: as §1, §2

In test [10] the target is DRD3 (Homo sapiens, UniProt P35462). The test is described as follows: β-arrestin recruitment GPCR agonist assay (PathHunter), DRD3. To be noted: synthetic standard; result in words. Type of test: cell-based.
DRD3, sequence (P35462 whole entry): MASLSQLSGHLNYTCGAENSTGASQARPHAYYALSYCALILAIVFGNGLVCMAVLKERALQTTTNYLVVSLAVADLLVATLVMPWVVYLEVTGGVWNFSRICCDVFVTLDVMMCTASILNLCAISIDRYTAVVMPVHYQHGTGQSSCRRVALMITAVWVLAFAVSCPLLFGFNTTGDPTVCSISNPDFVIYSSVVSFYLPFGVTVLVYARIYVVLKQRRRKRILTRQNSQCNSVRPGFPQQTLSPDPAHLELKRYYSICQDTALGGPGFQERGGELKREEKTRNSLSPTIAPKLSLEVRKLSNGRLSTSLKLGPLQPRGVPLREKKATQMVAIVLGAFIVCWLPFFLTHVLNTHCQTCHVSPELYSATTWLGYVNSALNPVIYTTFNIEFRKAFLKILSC
The mark [11] stands for this setting: Table 1, GPCR UTR2 (Q9UKP6), read-out: EC50 (μM), UTR2.

GPR109B, sequence (P49019 whole entry): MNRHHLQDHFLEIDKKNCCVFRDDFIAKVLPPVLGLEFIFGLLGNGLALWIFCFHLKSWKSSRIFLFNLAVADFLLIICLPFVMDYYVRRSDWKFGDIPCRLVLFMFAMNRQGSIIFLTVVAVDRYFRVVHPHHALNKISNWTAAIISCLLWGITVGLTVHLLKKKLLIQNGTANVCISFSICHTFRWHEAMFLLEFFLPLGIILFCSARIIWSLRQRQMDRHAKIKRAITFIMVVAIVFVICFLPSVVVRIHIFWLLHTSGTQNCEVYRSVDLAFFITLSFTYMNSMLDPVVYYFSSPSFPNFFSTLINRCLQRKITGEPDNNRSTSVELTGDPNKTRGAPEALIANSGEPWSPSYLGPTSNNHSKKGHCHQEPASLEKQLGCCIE

`O=C(O)C=Cc1ccc(O)cc1` [4-hydroxycinnamic acid] yielded an EC50 in [1] of 208 µM.

As for `CCCCCCC1CC1CCCCCCCC(=O)O` (stereo not drawn) [9,10-methylenehexadecanoic acid], the EC50 was 52 µM in test [2] (setting [11]) and 3.2 µM in [3] (Table 1, GPCR BAI1 (O14514)). Moreover, in test [3] (result in words), the “agonism of BAI1” value is “agonized BAIL; also recorded: BAIl-active”.

As for `CCC(C)CCCCCCCCCCC(=O)O` (stereo not drawn) [12-methylmyristic acid, 12-methyltetradecanoic acid], the EC50 is 29 µM in [4] (Table 1, GPCR NMU1R (Q9HB89), read-out: EC50 (μM), NMU1R); 132 µM in test [4] (synthetic and natural compound, read-out: EC50, agonism of NMU1R (converted)); 49 µM in [2] (setting [11]); 202 µM in test [2] (synthetic and natural compound, read-out: EC50, agonism of UTR2 (converted)); 49 µM in test [5]. Also, the “agonist activity at NMU1R” value in [4] is listed as “NMU1R-active”.

In [5], `CC(C)CCCCCCCCCCCC(=O)O` [13-methylmyristic acid, 13-methyltetradecanoic acid] displayed an EC50 of 44 µM.

Turning to `CCC(C)CCCCCCCCCCCCC(=O)O` (stereo not drawn) [14-methylpalmitic acid], in [5], it took 40 µM to reach a half-maximal effect (EC50).

On to `N=C(N)NCCCCN` [Agmatine, agmatine, reference compound], for which the “agonism / activation of HRH4” value in [6] is given as “selectively agonized HRH4 but to a lesser extent than cadaverine”.

Take `CCC(C)CCCCCCCCCCCCC(=O)O` (stereo not drawn) [aiC17:0, reference compound]: the “agonist activity at NMU1R” value in test [4] is reported as “minimal agonist activity”. Also, the “agonist activity at UTR2” value in test [2] is reported as “minimal agonist activity”.

Consider `NCCCCCN` [cadaverine], for which the “agonism / activation of HRH4” value in [6] is reported as “major metabolite responsible for HRH4 activation; also recorded: HRH4 agonist”; in test [6] (listed as Cadaverine) it was “HRH4 agonist”.

For the compound `CC(C)CCCCCCCCCCCC(=O)O` [iC15:0, reference compound], in test [4], the “agonist activity at NMU1R” value is on record as “minimal agonist activity”. Besides, in test [2], the “agonist activity at UTR2” value was “minimal agonist activity”.

Take `NCCCCN` [putrescine, reference compound]: in test [6], the “agonism / activation of HRH4” value is recorded as “selectively agonized HRH4 but to a lesser extent than cadaverine”.

In the case of `NCCCCNCCCN` [spermidine], in [7], the “HRH activity across the entire receptor family” value is “no HRH activity across the entire receptor family”.

Turning to `NCCc1c[nH]c2ccccc12` [tryptamine], in [8], the “agonism of serotonin receptors (HTRs)” value is “can modulate serotonin receptors”.

`NCCc1ccc(O)cc1` [tyramine]: the “agonism of DRD2” value in test [9] was “agonism of DRD2 and DRD3 was validated”. Moreover, the “agonism of DRD3” value in [10] was “agonism of DRD2 and DRD3 was validated”.
